Laboratory results reported in US20020054880A1, “Anti-inflammatory, tolerogenic and immunoinhibiting properties of carbohydrate binding-peptides” (priority 1992, published 2002).
Where two headings read alike, the source gives them in different places.

What was measured:
[1] = target: αNeuAc(2-3)βGal(1-4)βGlcNAc-BSA (1-3) αFuc (Bos taurus, UniProt P02769); details: SLe^x; conjugate 50 μg/mL; 0.1 μg ACS2P1-biotin, 1 hour
Experimental: (§1) Binding assays were carried out essentially as described above using microtiter wells that were coated with 50 μl of BSA glycoconjugate (50 μg/ml) in 50 mM sodium phosphate buffer (pH 6.8) containing 5 mM MgCl2 nd 15 mM NaN3 for 16 hours at 4° C. The solution was removed by aspiration and replaced with 100 μl of 1% BSA in PBS containing 0.05% Tween 20 (PBST) and incubated at room temperature for an additional 2-3 hours. […] After incubating for 1 hour, the binding reaction was stopped by aspirating the solutions and the plate was washed with PBST (4×300 μl). Avidin-peroxidase (100 μl of a 1/3000 dilution of a 1 mg/ml solution in PBST) was added and incubated for an additional 1 hour. After washing the wells as described above, the substrate solution (1 mM ABTS in 5 mM citrate buffer, pH 4.2, containing 0.1% hydrogen peroxide, v/v) was added and the plates were incubated for 30 minutes. Binding assays for each BSA conjugate were done in triplicate and background binding was measured in wells coated with BSA only.

[2] = target: αNeuAc(2-3)βGal(1-3)βGlcNAc-BSA (Bos taurus, UniProt P02769); details: SLe^c; conjugate 50 μg/mL; 0.1 μg ACS2P1-biotin, 1 hour
Experimental: as §1

[3] = target: αNeuAc(2-3)βGal(1-3)βGlcNAc-BSA (1-4) αFuc (Bos taurus, UniProt P02769); details: SLe^a(C19.9); conjugate 50 μg/mL; 0.1 μg ACS2P1-biotin, 1 hour
Experimental: as §1

[4] = target: αNeuAc(2-3)βGal(1-4)βGlcNAc-BSA (Bos taurus, UniProt P02769); details: conjugate 50 μg/mL, 0.1 μg ACS2P1-biotin, 1 hour
Experimental: as §1

[5] = target: PT immobilized in microtiter wells (Bordetella pertussis, UniProt P04978+P04979)
asialoagalactofetuin = target: T1, asialoagalactofetuin (Bos taurus, UniProt P12763); details: ACS2P1-biotin 10 μg/ml; glycoprotein 3 μg/ml; n=3
T1 sequence (P12763 19-359): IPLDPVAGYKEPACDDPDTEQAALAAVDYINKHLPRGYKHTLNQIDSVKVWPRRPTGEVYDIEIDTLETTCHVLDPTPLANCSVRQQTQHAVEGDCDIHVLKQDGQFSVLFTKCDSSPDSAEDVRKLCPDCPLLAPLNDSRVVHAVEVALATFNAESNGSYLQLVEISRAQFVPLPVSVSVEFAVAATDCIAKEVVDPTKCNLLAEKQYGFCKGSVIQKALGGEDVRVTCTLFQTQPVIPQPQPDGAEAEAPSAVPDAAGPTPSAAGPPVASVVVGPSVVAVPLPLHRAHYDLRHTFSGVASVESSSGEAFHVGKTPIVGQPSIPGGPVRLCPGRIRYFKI
Description: (§2) The reaction was terminated by removing the mixture from the IODO-GEN tube and the iodinated peptide was purified on a Sephadex G-25 column (1×15 cm equilibrated with PBS).

fetuin = fetuin (Bos taurus, UniProt P12763)
Description: as §2

asialofetuin = target: T2, asialofetuin (Bos taurus, UniProt P12763); details: ACS2P1-biotin 10 μg/ml; glycoprotein 3 μg/ml; n=3
T2 sequence (P12763 19-359): T1 sequence (P12763 19-359)
Description: as §2

Sequence of αNeuAc(2-3)βGal(1-4)βGlcNAc-BSA (P02769 25-607): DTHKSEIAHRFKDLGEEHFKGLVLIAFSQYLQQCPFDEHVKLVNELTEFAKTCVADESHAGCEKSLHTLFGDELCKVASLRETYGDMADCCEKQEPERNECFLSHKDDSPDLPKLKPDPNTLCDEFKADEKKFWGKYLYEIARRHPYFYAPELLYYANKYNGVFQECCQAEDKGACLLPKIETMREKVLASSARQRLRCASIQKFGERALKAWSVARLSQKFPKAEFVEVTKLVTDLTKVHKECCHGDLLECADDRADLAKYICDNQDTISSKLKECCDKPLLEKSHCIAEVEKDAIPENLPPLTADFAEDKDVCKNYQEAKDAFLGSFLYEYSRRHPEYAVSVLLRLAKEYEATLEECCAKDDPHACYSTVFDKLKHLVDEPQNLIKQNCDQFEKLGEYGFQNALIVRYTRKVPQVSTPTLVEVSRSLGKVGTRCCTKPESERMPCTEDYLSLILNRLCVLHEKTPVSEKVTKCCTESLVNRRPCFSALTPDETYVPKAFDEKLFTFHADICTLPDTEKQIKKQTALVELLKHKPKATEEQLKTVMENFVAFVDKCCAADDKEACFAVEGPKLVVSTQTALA
Sequence of PT immobilized in microtiter wells (P04978 whole entry, looked up): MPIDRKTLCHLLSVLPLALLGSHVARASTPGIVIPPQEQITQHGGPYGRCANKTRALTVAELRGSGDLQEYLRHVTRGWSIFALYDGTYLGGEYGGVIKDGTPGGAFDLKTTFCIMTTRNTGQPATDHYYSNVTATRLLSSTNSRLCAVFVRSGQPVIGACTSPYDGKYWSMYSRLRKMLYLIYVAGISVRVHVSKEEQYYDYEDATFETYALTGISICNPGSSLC
Sequence of PT immobilized in microtiter wells (P04979 whole entry, looked up): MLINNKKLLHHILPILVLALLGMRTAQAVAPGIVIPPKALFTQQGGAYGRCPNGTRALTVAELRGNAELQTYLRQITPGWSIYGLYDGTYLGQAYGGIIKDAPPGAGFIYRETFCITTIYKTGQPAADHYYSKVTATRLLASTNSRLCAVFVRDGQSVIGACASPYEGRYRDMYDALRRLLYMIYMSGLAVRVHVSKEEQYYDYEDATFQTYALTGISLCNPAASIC
Sequence of αNeuAc(2-3)βGal(1-3)βGlcNAc-BSA (P02769 25-607): as the sequence (P02769 25-607) above
Sequence of αNeuAc(2-3)βGal(1-4)βGlcNAc-BSA (1-3) αFuc (P02769 25-607): as above
Sequence of αNeuAc(2-3)βGal(1-3)βGlcNAc-BSA (1-4) αFuc (P02769 25-607): as above

## BIOTIN-PQEQITQHGSPYGRC-CO—NH2 [ACS2P1-b]
[1]
  % Binding Relative to Fetuin of ACS2P1-b (n = 3): 84 ± 3%
[2]
  % Binding Relative to Fetuin of ACS2P1-b (n = 3): 70 ± 4%
[3]
  % Binding Relative to Fetuin of ACS2P1-b (n = 3): 84 ± 14%
[4]; SLacNAc (table row r10)
  % Binding Relative to Fetuin of ACS2P1-b (n = 3): 117 ± 12%
[4]; SLacNAc (table row r12)
  % Binding Relative to Fetuin of ACS2P1-b (n = 3): 94 ± 2%
[5]
  direct binding of biotinylated peptide to PT immobilized in microtiter wells, in words: concentration-dependent binding
asialoagalactofetuin
  binding to asialoagalactofetuin relative to fetuin: 93±18%
fetuin
  direct binding of biotinylated peptide to fetuin, in words: concentration-dependent binding
fetuin; iodinated vs underivatized peptide, 10 μg/ml, n=3
  reduction of binding of the peptide to fetuin by extensive iodination (IODO-GEN): 58±3%
asialofetuin
  binding to asialofetuin relative to fetuin: 45±9%
